Assays:
CCRF-CEM [1] = assay: Inhibitory activity was tested against CEM cells; format: functional, cell-based; conditions: Homo sapiens
CCRF-CEM [2] = assay: Average potency against CEM cells; format: functional, Homo sapiens
L1210 [3] = assay: Average potency against L1210 cells; format: functional, Mus musculus
MOLT-4 [4] = assay: Average potency against Molt4/C8cells; format: functional, Homo sapiens
MOLT-4 [5] = assay: Inhibitory activity was tested against Molt4/C8 cells; format: functional, cell-based; conditions: Homo sapiens
P388 [6] = assay: Average potency against P388 cells; format: functional, Mus musculus
P388 [7] = assay: Inhibitory activity was tested against P388 cells; format: functional, cell-based; conditions: Mus musculus
L1210 [8] = assay: Inhibitory activity was tested against L1210 cells; format: functional, cell-based; conditions: Mus musculus

Structure (SMILES)	IC50 (CCRF-CEM [1])	AP (CCRF-CEM [2])	AP (L1210 [3])	AP (MOLT-4 [4])	IC50 (MOLT-4 [5])	AP (P388 [6])	IC50 (P388 [7])	IC50 (L1210 [8])
CN(C)c1ccc(/C=C2\Cc3ccccc3C2=O)cc1	41 µM	155 µM	127 µM	267 µM	135 µM	42.9 µM	> 50 µM	61.7 µM
O=C1/C(=C/c2ccc(Cl)cc2)Cc2ccccc21	284 µM	155 µM	127 µM	267 µM	> 500 µM	42.9 µM	> 50 µM	54.1 µM
Cc1cccc(/C=C2\CCc3ccccc3C2=O)c1	9.41 µM	115 µM	135 µM	158 µM	35.8 µM	20.9 µM	16.3 µM	73.2 µM
O=C1/C(=C/c2cccc(Cl)c2)CCc2ccccc21	9.19 µM	115 µM	135 µM	158 µM	41.8 µM	20.9 µM	16.8 µM	118 µM
Cc1ccc(/C=C2\Cc3ccccc3C2=O)cc1	67.1 µM	155 µM	127 µM	267 µM	> 500 µM	42.9 µM	38.6 µM	59.1 µM
O=C1CCCCC/C1=C\c1cccc(Br)c1	137 µM	136 µM	227 µM	186 µM	176 µM	34.5 µM	24.1 µM	246 µM
COc1ccc(/C=C2\CCc3ccccc3C2=O)cc1	8.84 µM	115 µM	135 µM	158 µM	9.41 µM	20.9 µM	22.1 µM	44 µM
O=C1/C(=C/c2ccc(F)cc2)CCc2ccccc21	33.4 µM	115 µM	135 µM	158 µM	41.2 µM	20.9 µM	15.9 µM	49.3 µM
O=C1/C(=C/c2cccc([N+](=O)[O-])c2)CCc2ccccc21	5.3 µM	115 µM	135 µM	158 µM	8.01 µM	20.9 µM	12 µM	254 µM
CN(C)c1ccc(/C=C2\CCc3ccccc3C2=O)cc1	1.65 µM	115 µM	135 µM	158 µM	2.11 µM	20.9 µM	5.3 µM	17.5 µM
O=C1/C(=C/c2ccc(F)cc2)Cc2ccccc21	42.2 µM	155 µM	127 µM	267 µM	60 µM	42.9 µM	> 50 µM	89 µM
COc1cccc(/C=C2\Cc3ccccc3C2=O)c1	> 500 µM	155 µM	127 µM	267 µM	> 500 µM	42.9 µM	> 50 µM	217 µM
O=C1/C(=C/c2ccccc2)Cc2ccccc21	41.3 µM	155 µM	127 µM	267 µM	42.3 µM	42.9 µM	> 50 µM	112 µM
O=C1/C(=C/c2ccc(Br)cc2)CCc2ccccc21	> 500 µM	115 µM	135 µM	158 µM	> 500 µM	20.9 µM	20.4 µM	202 µM
O=C1/C(=C/c2cccc(F)c2)Cc2ccccc21	39.2 µM	155 µM	127 µM	267 µM	46.1 µM	42.9 µM	40 µM	181 µM
O=C1/C(=C/c2ccc(Br)cc2)Cc2ccccc21	299 µM	155 µM	127 µM	267 µM	> 500 µM	42.9 µM	> 50 µM	64.8 µM
O=C1/C(=C/c2ccc(Br)cc2)CCCc2ccccc21	17.1 µM	47 µM	85.2 µM	66 µM	54.7 µM	11.2 µM	18.6 µM	50.9 µM
O=C1/C(=C/c2ccc(F)cc2)CCCc2ccccc21	20 µM	47 µM	85.2 µM	66 µM	53.6 µM	11.2 µM	11.1 µM	60.3 µM
O=C1CCCCC/C1=C\c1ccc(Br)cc1	42.8 µM	136 µM	227 µM	186 µM	49.4 µM	34.5 µM	16.8 µM	68.4 µM
O=C1/C(=C/c2cccc(Cl)c2)Cc2ccccc21	31.8 µM	155 µM	127 µM	267 µM	50.9 µM	42.9 µM	26.3 µM	41.2 µM
O=C1/C(=C/c2ccc([N+](=O)[O-])cc2)Cc2ccccc21	> 500 µM	155 µM	127 µM	267 µM	> 500 µM	42.9 µM	> 50 µM	> 500 µM
Cc1cccc(/C=C2\Cc3ccccc3C2=O)c1	41.3 µM	155 µM	127 µM	267 µM	80.3 µM	42.9 µM	24.9 µM	50.4 µM
O=C1/C(=C/c2cccc(Br)c2)CCCc2ccccc21	8.9 µM	47 µM	85.2 µM	66 µM	17.1 µM	11.2 µM	10.5 µM	51 µM
COc1ccc(/C=C2\Cc3ccccc3C2=O)cc1	32.6 µM	155 µM	127 µM	267 µM	226 µM	42.9 µM	> 50 µM	45.8 µM
COc1cccc(/C=C2\CCc3ccccc3C2=O)c1	8.78 µM	115 µM	135 µM	158 µM	12.1 µM	20.9 µM	17.6 µM	60.7 µM
O=C1/C(=C/c2cccc(F)c2)CCc2ccccc21	8.01 µM	115 µM	135 µM	158 µM	11.9 µM	20.9 µM	31.1 µM	61.2 µM
O=C1/C(=C/c2ccccc2)CCc2ccccc21	7.42 µM	115 µM	135 µM	158 µM	32.4 µM	20.9 µM	30.2 µM	121 µM
Cc1ccc(/C=C2\CCc3ccccc3C2=O)cc1	460 µM	115 µM	135 µM	158 µM	> 500 µM	20.9 µM	17.7 µM	161 µM

From ChEMBL document CHEMBL1132632, “Conformational and quantitative structure-activity relationship study of cytotoxic 2-arylidenebenzocycloalkanones” (J Med Chem, 1999)
